# Source: PubChem BioAssay AID1963421 (Molecular Pharmacology Branch, DTP, NCI, 2024)
# pIC50: −log10 of the molar value.
# Test system: 519858-162-T-J1-PDC complex spheroid growth, % test/control
# Test: Anticancer human tumor 519858-162-T-J1-PDC patient-derived colon adenocarcinoma cell line growth inhibition [Asc]
# Conditions: for pIC50: curve of first compound; for viability, T/C: stronger effect = lower value
# Procedure, shortened: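 Complex solid-tumor spheroids incorporating human endothelial and mesenchymal stem cells received single agents or combinations over half-log dilution ranges anchored to clinical Cmax.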
# [1] = second compound 0.0316 µM, first compound 0.0316 µM
# [2] = second compound 0.0316 µM, first compound 0.1 µM
# [3] = second compound 0.0316 µM, first compound 0.316 µM
# [4] = second compound 0.0316 µM, first compound 1 µM
# [5] = second compound 0.1 µM, first compound 0.0316 µM
# [6] = second compound 0.1 µM, first compound 0.1 µM
# [7] = second compound 0.1 µM, first compound 0.316 µM
# [8] = second compound 0.1 µM, first compound 1 µM
# [9] = second compound 0.316 µM, first compound 0.0316 µM
# [10] = second compound 0.316 µM, first compound 0.1 µM
# [11] = second compound 0.316 µM, first compound 0.316 µM
# [12] = second compound 0.316 µM, first compound 1 µM
# [13] = second compound 1 µM, first compound 0.0316 µM
# [14] = second compound 1 µM, first compound 0.1 µM
# [15] = second compound 1 µM, first compound 0.316 µM
# [16] = second compound 1 µM, first compound 1 µM
# [17] = second compound 3.16 µM, first compound 0.0316 µM
# [18] = second compound 3.16 µM, first compound 0.1 µM
# [19] = second compound 3.16 µM, first compound 0.316 µM
# [20] = second compound 3.16 µM, first compound 1 µM
# [21] = second compound 10 µM, first compound 0.0316 µM
# [22] = second compound 10 µM, first compound 0.1 µM
# [23] = second compound 10 µM, first compound 0.316 µM
# [24] = second compound 10 µM, first compound 1 µM
# 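Note: seven day drug exposure begun three days after spheroid seeding.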
# 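Throughout, for viability, T/C: 100% = DMSO vehicle wells and lower values mean less viable spheroid.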
compound,measurement,setting,value
C=CC(=O)N1CCN(c2nc(=O)n(-c3c(C)ccnc3C(C)C)c3nc(-c4c(O)cccc4F)c(F)cc23)C(C)C1 (centres undefined) + Cc1c(S(C)(=O)=O)c(-c2cc(F)cc(N3CCN(c4ccc(NS(=O)(=O)c5ccc(NC(CCN6CCC(C(=O)OCCCP(=O)(O)O)CC6)CSc6ccccc6)c(S(=O)(=O)C(F)(F)F)c5)cc4)CC3)c2)c(-c2ccc(Cl)cc2)n1C(C)C,pIC50,second compound 0.0316 µM,< 5.00
same,pIC50,second compound 0.1 µM,< 5.00
same,pIC50,second compound 0.316 µM,< 5.00
same,pIC50,second compound 1 µM,< 5.00
same,pIC50,second compound 3.16 µM,< 5.00
same,pIC50,second compound 10 µM,7.50
same,"viability, T/C",[1],93.5%
same,"viability, T/C",[2],97.2%
same,"viability, T/C",[3],83.9%
same,"viability, T/C",[4],79.4%
same,"viability, T/C","second compound 0.0316 µM, first compound 3.16 µM",83.8%
same,"viability, T/C","second compound 0.0316 µM, first compound 10 µM",70.9%
same,"viability, T/C",[5],84.2%
same,"viability, T/C",[6],84.3%
same,"viability, T/C",[7],82.5%
same,"viability, T/C",[8],89.5%
same,"viability, T/C","second compound 0.1 µM, first compound 3.16 µM",87.7%
same,"viability, T/C","second compound 0.1 µM, first compound 10 µM",77%
same,"viability, T/C",[9],89.7%
same,"viability, T/C",[10],86.6%
same,"viability, T/C",[11],76.2%
same,"viability, T/C",[12],75.5%
same,"viability, T/C","second compound 0.316 µM, first compound 3.16 µM",68.7%
same,"viability, T/C","second compound 0.316 µM, first compound 10 µM",66.1%
same,"viability, T/C",[13],62.6%
same,"viability, T/C",[14],58.5%
same,"viability, T/C",[15],72.4%
same,"viability, T/C",[16],69.5%
same,"viability, T/C","second compound 1 µM, first compound 3.16 µM",87.9%
same,"viability, T/C","second compound 1 µM, first compound 10 µM",73.6%
same,"viability, T/C",[17],72.8%
same,"viability, T/C",[18],77.9%
same,"viability, T/C",[19],64%
same,"viability, T/C",[20],60.6%
same,"viability, T/C","second compound 3.16 µM, first compound 3.16 µM",56.3%
same,"viability, T/C","second compound 3.16 µM, first compound 10 µM",68.9%
same,"viability, T/C",[21],52.9%
same,"viability, T/C",[22],53.7%
same,"viability, T/C",[23],46.9%
same,"viability, T/C",[24],55.3%
same,"viability, T/C","second compound 10 µM, first compound 3.16 µM",83.2%
same,"viability, T/C","second compound 10 µM, first compound 10 µM",63.7%
COc1c(OCCCN2CCOCC2)ccc2c3n(c(=NC(=O)c4cnc(N)nc4)nc12)CCN3 + Cc1c(S(C)(=O)=O)c(-c2cc(F)cc(N3CCN(c4ccc(NS(=O)(=O)c5ccc(NC(CCN6CCC(C(=O)OCCCP(=O)(O)O)CC6)CSc6ccccc6)c(S(=O)(=O)C(F)(F)F)c5)cc4)CC3)c2)c(-c2ccc(Cl)cc2)n1C(C)C,pIC50,second compound 0.0316 µM,< 6.00
same,pIC50,second compound 0.1 µM,6.24
same,pIC50,second compound 0.316 µM,< 6.00
same,pIC50,second compound 1 µM,6.62
same,pIC50,second compound 3.16 µM,< 6.00
same,pIC50,second compound 10 µM,< 6.00
same,"viability, T/C","second compound 0.0316 µM, first compound 0.00316 µM",41.6%
same,"viability, T/C","second compound 0.0316 µM, first compound 0.01 µM",97.5%
same,"viability, T/C",[1],74.9%
same,"viability, T/C",[2],95.5%
same,"viability, T/C",[3],54.4%
same,"viability, T/C",[4],52.7%
same,"viability, T/C","second compound 0.1 µM, first compound 0.00316 µM",68.5%
same,"viability, T/C","second compound 0.1 µM, first compound 0.01 µM",94.5%
same,"viability, T/C",[5],64.7%
same,"viability, T/C",[6],100%
same,"viability, T/C",[7],53.2%
same,"viability, T/C",[8],47.1%
same,"viability, T/C","second compound 0.316 µM, first compound 0.00316 µM",65.2%
same,"viability, T/C","second compound 0.316 µM, first compound 0.01 µM",103%
same,"viability, T/C",[9],69.4%
same,"viability, T/C",[10],72.7%
same,"viability, T/C",[11],52.2%
same,"viability, T/C",[12],53.5%
same,"viability, T/C","second compound 1 µM, first compound 0.00316 µM",108%
same,"viability, T/C","second compound 1 µM, first compound 0.01 µM",97.1%
same,"viability, T/C",[13],74.7%
same,"viability, T/C",[14],59.8%
same,"viability, T/C",[15],46.8%
same,"viability, T/C",[16],42.2%
same,"viability, T/C","second compound 3.16 µM, first compound 0.00316 µM",84.1%
same,"viability, T/C","second compound 3.16 µM, first compound 0.01 µM",60.8%
same,"viability, T/C",[17],79.2%
same,"viability, T/C",[18],70.3%
same,"viability, T/C",[19],53.9%
same,"viability, T/C",[20],55.6%
same,"viability, T/C","second compound 10 µM, first compound 0.00316 µM",78.3%
same,"viability, T/C","second compound 10 µM, first compound 0.01 µM",72.1%
same,"viability, T/C",[21],71.1%
same,"viability, T/C",[22],45.6%
same,"viability, T/C",[23],58.2%
same,"viability, T/C",[24],46.2%
